The record followed here is paper PMC10818416, “Design, Synthesis, and Evaluation of New Hybrid Derivatives of 5,6-Dihydro-4H-pyrrolo[3,2,1-ij]quinolin-2(1H)-one as Potential Dual Inhibitors of Blood Coagulation Factors Xa and XIa” (Molecules, 2024).

Read-outs that look alike come from different tables or passages of the source.

What all share (test): chromogenic substrate hydrolysis, […] nm
Common to all, as to type: biochemical

Assay [1] addresses T1, factor XIa (FXIa) (Homo sapiens, UniProt P03951).
T1 construct: gene F11

Assay [2] has as its target T2, thrombin (Homo sapiens, UniProt P00734).
T2 construct: gene F2
Particulars: […] enzyme, […] Tos-Gly-Pro-Arg-pNA, pH […], up to […] DMSO.

Assay [3] deals with T3, factor Xa (FXa) (Homo sapiens, UniProt P00742).
T3 construct: gene F10

The target of assay [4] is T1, factor XIa (FXIa). Particulars: […] enzyme, […] S2366, pH […], up to […] DMSO.
For assay [5], the target named is T3, factor Xa (FXa). Particulars: […] enzyme, […] S2765, pH […], up to […] DMSO.

T3 sequence (P00742 41-179): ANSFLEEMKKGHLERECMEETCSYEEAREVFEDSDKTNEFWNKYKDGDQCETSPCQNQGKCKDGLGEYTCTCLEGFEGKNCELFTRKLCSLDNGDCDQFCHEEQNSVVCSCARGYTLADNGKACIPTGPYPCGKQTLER
T3 sequence (P00742 235-488): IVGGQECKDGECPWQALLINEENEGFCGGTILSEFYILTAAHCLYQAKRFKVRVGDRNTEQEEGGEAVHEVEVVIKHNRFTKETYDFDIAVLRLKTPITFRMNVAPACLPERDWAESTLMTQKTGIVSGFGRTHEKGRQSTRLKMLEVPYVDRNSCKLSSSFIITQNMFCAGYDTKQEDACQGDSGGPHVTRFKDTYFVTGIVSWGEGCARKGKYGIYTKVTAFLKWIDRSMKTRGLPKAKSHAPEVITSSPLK
T1 sequence (P03951 19-387): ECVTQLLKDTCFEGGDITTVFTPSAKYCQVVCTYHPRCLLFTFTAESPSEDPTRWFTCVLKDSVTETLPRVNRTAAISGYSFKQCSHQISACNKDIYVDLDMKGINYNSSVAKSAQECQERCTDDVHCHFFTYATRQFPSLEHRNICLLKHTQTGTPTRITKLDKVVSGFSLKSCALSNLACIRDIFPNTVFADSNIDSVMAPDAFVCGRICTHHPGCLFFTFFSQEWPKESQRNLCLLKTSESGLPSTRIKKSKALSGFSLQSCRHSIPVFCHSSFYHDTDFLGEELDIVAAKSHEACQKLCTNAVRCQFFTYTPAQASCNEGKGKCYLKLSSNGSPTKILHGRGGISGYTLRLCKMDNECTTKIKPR
T1 sequence (P03951 388-625): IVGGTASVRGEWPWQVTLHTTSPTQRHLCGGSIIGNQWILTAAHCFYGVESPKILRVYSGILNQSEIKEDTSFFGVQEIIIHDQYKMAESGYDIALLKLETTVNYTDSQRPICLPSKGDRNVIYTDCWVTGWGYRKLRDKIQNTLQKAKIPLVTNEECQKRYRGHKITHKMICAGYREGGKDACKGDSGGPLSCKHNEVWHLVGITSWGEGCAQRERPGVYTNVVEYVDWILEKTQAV

On to `COC(=O)C=C1SC(NN=C2C(=O)N3c4c2cc(I)cc4C(C)CC3(C)C)=NC1=O` (mixture of isomers) [3e, Methyl 2-(2-(2-(8-iodo-4,4,6-trimethyl-2-oxo-5,6-dihydro-4H-pyrrolo[3,2,1-ij]quinolin-1(2H)-ylidene)hydrazineyl)-4-oxothiazol-5(4H)-ylidene)acetate], for which the IC50 stood at 8.03 ± 0.68 µM in assay [1] ([…] enzyme, […] S2366, pH […], up to […] DMSO) and 4.23 ± 0.31 µM in assay [3] ([…] enzyme, […] S2765, pH […], up to […] DMSO). For the same molecule, the “Percent Inhibition of Thrombin at 30 μM” value in assay [2] worked out at 96%.
With `COC(=O)/C=C1\SC(N/N=C2\C(=O)N3c4c2cc(Br)cc4C(C)(c2ccc(Cl)cc2)CC3(C)C)=NC1=O` (stereo not shown) [3l, Methyl (Z)-2-(2-(2-((Z)-8-bromo-6-(4-chlorophenyl)-4,4,6-trimethyl-2-oxo-5,6-dihydro-4H-pyrrolo[3,2,1-ij]quinolin-1(2H)-ylidene)hydrazineyl)-4-oxothiazol-5(4H)-ylidene)acetate], the IC50 worked out at 3.61 ± 1.7 µM in assay [1] and 1.74 ± 0.21 µM in assay [3].
As for `COC(=O)/C=C1\SC(N/N=C2\C(=O)N3c4c2cc(OC)cc4C(C)CC3(C)C)=NC1=O` (stereo not shown) [3b, Methyl (Z)-2-(2-(2-((Z)-8-methoxy-4,4,6-trimethyl-2-oxo-5,6-dihydro-4H-pyrrolo[3,2,1-ij]quinolin-1(2H)-ylidene)hydrazineyl)-4-oxothiazol-5(4H)-ylidene)acetate], the IC50 was 8.1 ± 0.2 µM in assay [1] and 5.76 ± 1.08 µM in assay [3].
Consider `COC(=O)C=C1SC(NN=C2C(=O)N3c4c2cc(C)cc4C(C)(c2ccc(Cl)cc2)CC3(C)C)=NC1=O` (mixture of isomers) [3j, Methyl 2-(2-(2-(6-(4-chlorophenyl)-4,4,6,8-tetramethyl-2-oxo-5,6-dihydro-4H-pyrrolo[3,2,1-ij]quinolin-1(2H)-ylidene)hydrazineyl)-4-oxothiazol-5(4H)-ylidene)acetate], for which the “Percent Inhibition at 30 μM / XIa” value in assay [4] is listed as 83%.
Regarding `COC(=O)/C=C1\SC(N/N=C2\C(=O)N3c4c2cc(Cl)cc4C(C)(c2ccc(Cl)cc2)CC3(C)C)=NC1=O` (stereo not shown) [3k, Methyl (Z)-2-(2-(2-((Z)-8-chloro-6-(4-chlorophenyl)-4,4,6-trimethyl-2-oxo-5,6-dihydro-4H-pyrrolo[3,2,1-ij]quinolin-1(2H)-ylidene)hydrazineyl)-4-oxothiazol-5(4H)-ylidene)acetate], the IC50 in assay [1] turned out to be 4.59 ± 0.54 µM; in assay [3] it was 1.17 ± 0.26 µM.
Turning to `COC(=O)/C=C1\SC(N/N=C2\C(=O)N3c4c(cc(C)c(C)c42)C(C)CC3(C)C)=NC1=O` (stereo not shown) [3f, Methyl (Z)-2-(4-oxo-2-(2-((Z)-4,4,6,8,9-pentamethyl-2-oxo-5,6-dihydro-4H-pyrrolo[3,2,1-ij]quinolin-1(2H)-ylidene)hydrazineyl)thiazol-5(4H)-ylidene)acetate], the IC50 in assay [1] is 7.97 ± 0.63 µM; in assay [3], 4.02 ± 0.6 µM.
On the same counts, the results for `COC(=O)/C=C1\SC(N/N=C2\C(=O)N3c4c2cc(Cl)cc4C(C)(c2ccccc2)CC3(C)C)=NC1=O` (stereo not shown) [3o, Methyl (Z)-2-(2-(2-((Z)-8-chloro-4,4,6-trimethyl-2-oxo-6-phenyl-5,6-dihydro-4H-pyrrolo[3,2,1-ij]quinolin-1(2H)-ylidene)hydrazineyl)-4-oxothiazol-5(4H)-ylidene)acetate] are 7.21 ± 0.22 µM and 1.34 ± 0.16 µM.
In the case of `COC(=O)/C=C1\SC(N/N=C2\C(=O)N3c4c2cccc4C(C)(c2ccc(Cl)cc2)CC3(C)C)=NC1=O` (stereo not shown) [3i, Methyl (Z)-2-(2-(2-((Z)-6-(4-chlorophenyl)-4,4,6-trimethyl-2-oxo-5,6-dihydro-4H-pyrrolo[3,2,1-ij]quinolin-1(2H)-ylidene)hydrazineyl)-4-oxothiazol-5(4H)-ylidene)acetate], in assay [5], the “Percent Inhibition at 30 μM / Xa” value was found to be 87%.
For the molecule `COC(=O)/C=C1\SC(N/N=C2\C(=O)N3c4c2cc(Cl)cc4C(C)CC3(C)C)=NC1=O` (stereo not shown) [3c, Methyl (Z)-2-(2-(2-((Z)-8-chloro-4,4,6-trimethyl-2-oxo-5,6-dihydro-4H-pyrrolo[3,2,1-ij]quinolin-1(2H)-ylidene)hydrazineyl)-4-oxothiazol-5(4H)-ylidene)acetate], the IC50 was found to be 12.2 ± 0.2 µM in assay [1] and 2.84 ± 0.04 µM in assay [3].
On the same counts, the results for `COC(=O)/C=C1\SC(N/N=C2\C(=O)N3c4c2cccc4C(C)(c2ccccc2)CC3(C)C)=NC1=O` (stereo not shown) [3n, Methyl (Z)-2-(4-oxo-2-(2-((Z)-4,4,6-trimethyl-2-oxo-6-phenyl-5,6-dihydro-4H-pyrrolo[3,2,1-ij]quinolin-1(2H)-ylidene)hydrazineyl)thiazol-5(4H)-ylidene)acetate] are 11.5 ± 0.98 µM and 1.86 ± 0.07 µM.
For the molecule `COC(=O)/C=C1\SC(N/N=C2\C(=O)N3c4c2cc(Br)cc4C(C)(c2ccccc2)CC3(C)C)=NC1=O` (stereo not shown) [3p, Methyl (Z)-2-(2-(2-((Z)-8-bromo-4,4,6-trimethyl-2-oxo-6-phenyl-5,6-dihydro-4H-pyrrolo[3,2,1-ij]quinolin-1(2H)-ylidene)hydrazineyl)-4-oxothiazol-5(4H)-ylidene)acetate], the values for the IC50 in assay [1] and in assay [3] were 3.87 ± 0.33 µM and 1.83 ± 0.05 µM, respectively.
Take `COC(=O)/C=C1\SC(N/N=C2\C(=O)N3c4c2cc(Br)cc4C(C)CC3(C)C)=NC1=O` (stereo not shown) [3d, Methyl (Z)-2-(2-(2-((Z)-8-bromo-4,4,6-trimethyl-2-oxo-5,6-dihydro-4H-pyrrolo[3,2,1-ij]quinolin-1(2H)-ylidene)hydrazineyl)-4-oxothiazol-5(4H)-ylidene)acetate]: the “Percent Inhibition at 30 μM / XIa” value in assay [4] is given as 96%.
